Results reported in patent publication US12144864B2, “Tubulysins and protein-tubulysin conjugates” (Regeneron Pharmaceuticals, Inc., priority 2018, dated 2024).
pIC50: −log10 of the molar value. Read-outs that look alike come from different tables or passages of the source.

Key:
C4-2 cells = assay: Cell-based killing assay of payloads (CellTiter-Glo), C4-2 cells; set-up: species or system human; details: 5-day incubation; for pIC50: Homo sapiens, C4-2, 120 h, average ± SD where replicates; for C4-2 % Kill: at maximum concentration tested (100 − % viable cells)
Experimental: (§1) To test the ability of the disclosed tubulysin payloads to kill human cell lines, an in vitro cytotoxicity assay was performed. In vitro cytotoxicity of the disclosed payloads, as well as reference compounds, were evaluated using the CellTiter-Glo Assay Kit (Promega, Cat #G7573), in which the quantity of ATP present is used to determine the number of viable cells in culture. For the assay, C4-2, HEK293, or T47D cells were seeded at 4000 cells/well on Nunclon white 96-well plates in complete growth medium (DME high glucose:Ham's F12 at 4:1, 10% FBS, 100 units/ml Penicillin, 100 ug/ml streptomycin, 53 ug/ml glutatmine, 10 ug/ml insulin, 220 ng/ml biotin, 12.5 pg/ml T3, 12.5 ug/ml Adenine, 4 ug/ml transferrin for C42 cells; DME high glucose, 10% FBS, 100 units/ml Penicillin, 100 ug/ml streptomycin, 53 ug/ml glutatmine for HEK293; RPMI, 10% FBS, 100 units/ml Penicillin, 100 ug/ml streptomycin, 53 ug/ml glutatmine, 10 ug/ml insulin, 10 mM HEPEs, 200 nM Sodium Pyruvate for T47D cells) and grown overnight at 37° C. in 5% CO2. For cell viability curves, 1:3 serially diluted payloads were added to the cells at final concentrations ranging from 100 nM to […], including a no treatment control group, and were then incubated for 5 days. After the 5-day incubation, cells were incubated at room temperature with 100 μL of CellTiter-Glo reagents for 10 minutes. Relative luminescence units (RLU) were determined on a Victor plate reader (PerkinElmer). The IC50 values were determined from a four-parameter logistic equation over a 10-point response curve (GraphPad Prism). All IC50 values are expressed in molar (M) concentration. The percent cell killing (% kill) at the maximum concentration tested was estimated from the following formula (100−% viable cells). Averages±standard deviation (SD) are included where replicate experiments were performed.

HCT15 cells = assay: cells; assay type: cell-based, human; details: HCT15 cells; for HCT-15 + verapamil % Kill / HCT-15 % Kill: maximum % cell killing
Experimental: as §1
In vitro cytotoxicity of the disclosed payloads as well as reference compounds were evaluated similarly as described above except using 1000 HCT15 cells, a colorectal carcinoma cell line, in growth medium (RPMI, 10% FBS, 100 units/ml Penicillin, 100 ug/ml streptomycin, 53 ug/ml glutatmine) with or without 5 ug/mL of Verapamil.

HL60/MX2 cells = assay: Cytotoxicity in panel of MDR cell lines, HL60/MX2 (72 h and 144 h); assay type: cell-based, human; details: for pIC50: Homo sapiens
Experimental: as §1
(§2) To further test the ability of the disclosed tubulysin payloads, a cytotoxicity assay was performed using a panel of multidrug resistant (MDR) cell lines. In vitro cytotoxicity of the disclosed payloads as well as reference compounds were similarly evaluated as described above except using HCT-15 cells, a colorectal carcinoma cell line; H69AR, a doxorubicin resistant MDR derivative of the small cell lung cancer carcinoma cell line NCI-H69; MES-SA/MX2, a mitoxantrone resistant MDR derivative of the uterine sarcoma cell line MES-SA; and HL60/MX2, a mitoxantrone resistant MDR derivative of the acute promyelocytic leukemia cell line HL60. In these assays, cytotoxicity was evaluated in normal growth media (RPMI, 10% FBS, 100 units/ml Penicillin, 100 ug/ml streptomycin, and 53 ug/ml glutatmine for HCT-15 and HL60/MX2; RPMI, 20% FBS, 100 units/ml Penicillin, 100 ug/ml streptomycin, and 53 ug/ml glutatmine for H69-AR; Waymouths's:McCoy's (1:1), 10% FBS, 100 units/ml Penicillin, 100 ug/ml streptomycin, and 53 ug/ml glutatmine for MES-SA/MX2) with 1000 cells per well following 72 h and 144 h incubation with payloads.

MES-SA/MX2 cells = assay: Cytotoxicity in panel of MDR cell lines, MES-SA/MX2 (72 h and 144 h); assay type: cell-based, human; details: for pIC50: Homo sapiens
Experimental: as §1, §2

HCT-15 cells = assay: Cytotoxicity in panel of MDR cell lines, HCT-15 (72 h and 144 h); assay type: cell-based, human; details: for pIC50: Homo sapiens
Experimental: as §1, §2

H69AR cells = assay: Cytotoxicity in panel of MDR cell lines, H69AR (72 h and 144 h); assay type: cell-based, human; details: for pIC50: Homo sapiens
Experimental: as §1, §2

[1] = with 5 ug/mL Verapamil, read-out: HCT-15 + verapamil IC50
[2] = Homo sapiens, HCT-15, without Verapamil, read-out: HCT-15 IC50
[3] = 72 h incubation, read-out: HL60/MX2 IC50 72 h
[4] = 144 h incubation, read-out: HL60/MX2 IC50 144 h
[5] = 72 h incubation, read-out: MES-SA/MX2 IC50 72 h
[6] = 144 h incubation, read-out: MES-SA/MX2 IC50 144 h
[7] = 72 h incubation, read-out: HCT-15 IC50 72 h
[8] = 144 h incubation, read-out: HCT-15 IC50 144 h
[9] = 72 h incubation, read-out: H69AR IC50 72 h
[10] = 144 h incubation, read-out: H69AR IC50 144 h

SMILES | pIC50 (C4-2 cells) | C4-2 % Kill (C4-2 cells) | HCT-15 + verapamil % Kill (HCT15 cells; with 5 ug/mL Verapamil) | pIC50 (HCT15 cells; [1]) | HL60/MX2 % Kill 72 h (HL60/MX2 cells; 72 h incubation) | HL60/MX2 % Kill 144 h (HL60/MX2 cells; 144 h incubation) | pIC50 (HL60/MX2 cells; [3]) | pIC50 (HL60/MX2 cells; [4]) | MES-SA/MX2 % Kill 72 h (MES-SA/MX2 cells; 72 h incubation) | MES-SA/MX2 % Kill 144 h (MES-SA/MX2 cells; 144 h incubation) | pIC50 (MES-SA/MX2 cells; [5]) | pIC50 (MES-SA/MX2 cells; [6]) | HCT-15 % Kill 72 h (HCT-15 cells; 72 h incubation) | HCT-15 % Kill 144 h (HCT-15 cells; 144 h incubation) | pIC50 (HCT-15 cells; [7]) | pIC50 (HCT-15 cells; [8]) | H69AR % Kill 72 h (H69AR cells; 72 h incubation) | H69AR % Kill 144 h (H69AR cells; 144 h incubation) | pIC50 (H69AR cells; [9]) | pIC50 (H69AR cells; [10]) | further results
CCCCCCN(C(=O)[C@@H](NC(=O)[C@H]1CCCCN1C)[C@@H](C)CC)[C@H](C[C@@H](OC(C)=O)c1nc(C(=O)N[C@@H](Cc2ccc(N)c(F)c2)CC(C)(C)C(=O)O)cs1)C(C)C [IVvB, 4-({2-[(1R,3R)-1-(Acetyloxy)-3-[(2S,3S)—N-hexyl-3-methyl-2-{[(2R)-1-methylpiperidin-2-yl]formamido}pentanamido]-4-methylpentyl]-1,3-thiazol-4-yl}formamido)-5-(4-amino-3-fluorophenyl)-2,2-dimethylpentanoic acid] | 10.67 | 94.6% | 97.7% | 10.82 | 98.2% | 99.8% | > 10.82 | > 10.82 | 99.1% | 99.9% | 10.34 | 10.18 | 97.7% | 99.6% | > 10.82 | 10.64 | 96.9% | 99.1% | 10.22 | 9.80 | HCT-15 % Kill (HCT15 cells; without Verapamil): 97.3%; pIC50 (HCT15 cells; [2]): 10.60
CCCC(=O)OCN(C(=O)[C@@H](NC(=O)[C@H]1CCCCN1C)[C@@H](C)CC)[C@H](C[C@@H](OC(C)=O)c1nc(C(=O)N[C@@H](Cc2ccc(O)cc2)C[C@H](C)C(=O)O)cs1)C(C)C [reference compound] | 9.96 | 96.4% | 99.1% | 9.89 | 98% | 100% | > 10.82 | > 10.82 | 98.6% | 99.9% | 9.24 | 8.88 | – | – | – | – | – | – | – | – | HCT-15 % Kill (HCT15 cells; without Verapamil): 99.1%; pIC50 (HCT15 cells; [2]): 9.29
CCCCCCON(C(=O)[C@@H](NC(=O)[C@H]1CCCCN1C)[C@@H](C)CC)[C@H](C[C@@H](OC(=O)NC)c1nc(C(=O)N[C@@H](Cc2ccc(O)cc2)C[C@H](C)C(=O)O)cs1)C(C)C [VIa, (2S,4R)-5-(4-Hydroxyphenyl)-4-(2-((5R,7R)-7-isopropyl-8-((2S,3S)-3-methyl-2-((R)-1-methylpiperidine-2-carboxamido)pentanoyl)-3-oxo-4,9-dioxa-2,8-diazapentadecan-5-yl)thiazole-4-carboxamido)-2-methylpentanoic acid] | 8.73 | 94.1% | 98.4 ± 0.7% | 9.59 | – | – | – | – | – | – | – | – | 94% | 98.9% | 8.27 | 8.14 | 83.5% | 91.6% | 7.80 | 7.10 | HCT-15 % Kill (HCT15 cells; without Verapamil): 97 ± 1.9%; pIC50 (HCT15 cells; [2]): 8.24
CCCCCCN(C(=O)[C@@H](NC(=O)[C@H]1CCCCN1C)[C@@H](C)CC)[C@H](C[C@@H](OC(C)=O)c1nc(C(=O)NC(Cc2ccc(F)c(NC)c2)CC(C)(C)C(=O)O)cs1)C(C)C (stereo partly drawn) [IVt, 4-(2-((1R,3R)-1-acetoxy-3-((2S,3S)—N-hexyl-3-methyl-2-((R)-1-methylpiperidine-2-carboxamido)pentanamido)-4-methylpentyl)thiazole-4-carboxamido)-5-(4-fluoro-3-(methylamino)phenyl)-2,2-dimethylpentanoic acid] | 9.96 | 94.2% | – | – | 98.4% | 100% | > 10.82 | > 10.82 | 99.3% | 100% | 9.35 | 9.13 | 97.6% | 99.8% | 9.84 | 9.74 | 96.3% | 99.3% | 9.31 | 9.09 | –
CCCCCCN(C(=O)[C@@H](NC(=O)[C@H]1CCCCN1C)[C@@H](C)CC)[C@H](C[C@@H](OC(C)=O)c1nc(C(=O)NC(Cc2ccc(F)c(N)c2)CC(C)(C)C(=O)O)cs1)C(C)C (stereo partly drawn) [IVu, 4-({2-[(1R,3R)-1-(Acetyloxy)-3-[(2S,3S)—N-hexyl-3-methyl-2-{[(2R)-1-methylpiperidin-2-yl]formamido}pentanamido]-4-methylpentyl]-1,3-thiazol-4-yl}formamido)-5-(3-amino-4-fluorophenyl)-2,2-dimethylpentanoic acid] | 9.94 | 93.9% | – | – | 98% | 99.9% | > 10.82 | > 10.82 | 98.8% | 100% | 9.27 | 8.92 | 97.9% | 99.8% | 9.87 | 9.62 | 96.4% | 99% | 9.20 | 8.98 | –
